Results as given in patent US8798939B2, “Methods for designing, selecting and/or optimizing allosteric processing inhibitors for matrix metalloproteinases” (Janssen Pharmaceutica N.V., priority 2011, dated 2014).

Biological target: T1, proMMP9 activation to active MMP9 in HFL-1 cells (Homo sapiens, UniProt P14780)
T1 construct: endogenous in cells; host or cells: HFL-1 (ATCC CCL-153), TNFα plus 30 nM human neutrophil elastase
Assay: Activation of proMMP9 by human fetal lung fibroblast (HFL-1) cultures (Western blot)
Type: cell-based
Conditions: 3.3 μM, 72 hrs, mAb-L51/82
Protocol: Example 2 was assessed additionally for ability to block the maturation of proMMP9 to active MMP9 in cultures of human fetal lung fibroblasts (HFL-1, American Type Culture Collection #CCL-153). Unlike rat synoviocytes, HFL-1 cells were unable to process proMMP9 to the active form without addition of neutrophil elastase. […] Rather, the function of elastase in this assay may be to inactivate tissue inhibitors of matrix metalloproteinases (TIMPs) that repress endogenous pathways of MMP9 activation (Skold, Liu et al. 1999).
HLF-1 were maintained in monolayer culture in DMEM with 10% FCS and were used between passage numbers 5-15. HLF-1 were embedded in collagen gels as described for rat SCW synoviocytes (vida supra). […] The plates were cultured an additional 72 hrs, at which time MMP9 secreted into the conditioned media was bound to gelatin-sepharose and evaluated by Western blot analysis as described for the rat synoviocyte cultures (vida supra). mAb-51/82 detected three forms of MMP9 in HFL-1 cultures.
A second experiment was performed to determine if the 80 kD form was mature active MMP9 and to determine the potency of Example 2 as an inhibitor of MMP9 maturation in this assay. […] In the absence of Example 2, pAb-1246 readily detected MMP9 with an electrophoretic mobility of approximately 80 kD. […]

T1 sequence (P14780 20-707 limits assumed): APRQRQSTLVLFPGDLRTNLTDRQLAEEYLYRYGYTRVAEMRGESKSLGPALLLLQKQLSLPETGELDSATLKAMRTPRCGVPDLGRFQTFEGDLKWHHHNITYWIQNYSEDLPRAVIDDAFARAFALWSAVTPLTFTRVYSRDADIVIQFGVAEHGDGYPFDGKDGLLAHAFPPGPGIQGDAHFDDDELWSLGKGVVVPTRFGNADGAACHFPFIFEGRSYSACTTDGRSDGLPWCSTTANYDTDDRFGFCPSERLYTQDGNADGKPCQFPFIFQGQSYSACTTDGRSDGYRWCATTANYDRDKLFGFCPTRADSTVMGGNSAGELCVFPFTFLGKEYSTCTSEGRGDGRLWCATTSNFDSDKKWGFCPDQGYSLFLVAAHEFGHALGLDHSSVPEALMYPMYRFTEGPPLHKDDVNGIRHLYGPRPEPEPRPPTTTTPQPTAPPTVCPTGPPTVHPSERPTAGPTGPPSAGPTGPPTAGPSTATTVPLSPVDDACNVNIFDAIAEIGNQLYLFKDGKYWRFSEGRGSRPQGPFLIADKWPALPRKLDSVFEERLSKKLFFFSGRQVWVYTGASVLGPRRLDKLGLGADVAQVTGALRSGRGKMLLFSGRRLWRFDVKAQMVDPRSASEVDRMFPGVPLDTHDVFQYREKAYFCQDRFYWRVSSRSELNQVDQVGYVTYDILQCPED

`Cc1nc(C)c(-c2csc(Nc3cc(S(N)(=O)=O)ccc3OC(C)C)n2)s1` [Example 2, 3-(2′,4′-Dimethyl-[4,5′]bithiazolyl-2-ylamino)-4-isopropoxy-benzenesulfonamide.HBr] was tested, and the “Signal Total” value was 91346 INT * mm^2.
